# Counter-ions that a name gives are not always drawn. Like-named read-outs stand apart in the source and are kept apart here.
# Key:
# SARS-CoV-2 = experiment: Anti-viral potency in VERO E6 cells (cytopathic viral activity, crystal violet); type: cell-based; conditions: Severe acute respiratory syndrome coronavirus 2, Vero C1008, 48 h, read-out: SARS-COV-2 EC50 (μM)
# [1] = tested on: human Hep G2 cells (ATCC HB-8065); experiment: Cytotoxicity in Hep G2 cells (CellTiter-Glo); type: cell-based
# SARS-CoV-2 PLpro = target: T1, SARS-CoV-2 PLpro (Severe acute respiratory syndrome coronavirus 2, UniProt P0DTD1); experiment: biochemical
# T1 construct: containing 60 nM papain-like protease
# [2] = Hep G2 cells, 100 μM test article, 24-hour exposure
# [3] = 60 nM papain-like protease, 50 μM Z-RLRGG-AMC, pH 7.5, 37° C., read-out: SARS-CoV-2 PLpro IC50
SMILES,EC50 (SARS-CoV-2) [µM],"% Cell Viability [1, 2] [%]",IC50 (SARS-CoV-2 PLpro; [3]) [µM],"% Cell Viability ([1]; human, 24 h, 100 μM) [%]",IC50 (SARS-CoV-2 PLpro) [µM]
"COc1ccc([C@@H](C)NC(=O)c2cc(N3CC4CN(C)CC4C3)ccc2C)cc1OC (stereo partly drawn) [Example 9, N-[(1R)-1-(3,4-Dimethoxyphenyl)ethyl]-2-methyl-5-(2-methyl-1,3,3a,4,6,6a-hexahydropyrrolo[3,4-c]pyrrol-5-yl)benzamide]",< 15,96.5,< 5,,
"COc1ccc([C@@H](C)NC(=O)c2cc(N3C[C@H]4CC[C@@H](C3)N4C)ccc2C)cc1OC [Example 11, N-[(1R)-1-(3,4-Dimethoxyphenyl)ethyl]-2-methyl-5-[(1R,5S)-8-methyl-3,8-diazabicyclo[3.2.1]octan-3-yl]benzamide]",< 5,,,95.6,< 2
"Cc1ccc(N2CCN(C)CC2)cc1C(=O)N[C@H](C)c1cccc(-c2cn(C)nc2C)c1 [Example 61, N-[(1R)-1-[3-(1,3-Dimethylpyrazol-4-yl)phenyl]ethyl]-2-methyl-5-(4-methylpiperazin-1-yl)benzamide]",< 5,69.2,< 2,,
"CCn1cc(-c2cccc([C@@H](C)NC(=O)c3cc(N4CCN(C)CC4)ccc3C)c2)cn1 [Example 64, N-[(1R)-1-[3-(1-Ethylpyrazol-4-yl)phenyl]ethyl]-2-methyl-5-(4-methylpiperazin-1-yl)benzamide]",< 5,78.6,< 2,,
"Cc1ccc(N2CCNCC2)cc1C(=O)N[C@H](C)c1cccc(-c2cnn(C)c2)c1 [Example 72, 2-Methyl-N-[(1R)-1-[3-(1-methylpyrazol-4-yl)phenyl]ethyl]-5-piperazin-1-yl-benzamide]",< 5,79.0,< 2,,
"COc1cc(-c2cnn(C)c2)cc([C@@H](C)NC(=O)c2cc(N3CCN(C)CC3)ccc2C)c1 [Example 219, N-[(1R)-1-[3-Methoxy-5-(1-methylpyrazol-4-yl)phenyl]ethyl]-2-methyl-5-(4-methylpiperazin-1-yl)benzamide]",< 5,,< 2,,
"COc1ccc([C@@H](C)NC(=O)c2cc(N3CCN(C)CC3)ccc2C)cc1O [Example 291, N-[(1R)-1-(3-Hydroxy-4-methoxy-phenyl)ethyl]-2-methyl-5-(4-methylpiperazin-1-yl)benzamide]",,97.4,< 5,,
"COc1ccc([C@@H](C)NC(=O)c2cc(N3CCN(C)CC3)ccc2C)cc1OCCN1CCOCC1 [Example 292, N-[(1R)-1-[4-Methoxy-3-(2-morpholinoethoxy)phenyl]ethyl]-2-methyl-5-(4-methylpiperazin-1-yl)benzamide]",,88.9,< 2,,
"COc1ccc([C@@H](C)NC(=O)c2cc(N3CCN(C)CC3)ccc2C)cc1OCCO [Example 294, N-[(1R)-1-[3-(2-Hydroxyethoxy)-4-methoxy-phenyl]ethyl]-2-methyl-5-(4-methylpiperazin-1-yl)benzamide]",,120.9,< 5,,
"COc1ccc([C@@H](C)NC(=O)c2cc(N3CCN(C)CC3)ccc2C)cc1OCCN [Example 295, N-[(1R)-1-[3-(2-Aminoethoxy)-4-methoxy-phenyl]ethyl]-2-methyl-5-(4-methylpiperazin-1-yl)benzamide Dihydrochloride Salt]",,107.9,< 10,,
"COc1cc([C@@H](C)NC(=O)c2cc(N3C[C@H]4C[C@@H]3CN4C)ccc2C)ccc1OCC1CC1 [Example 297, N-[(1R)-1-[4-(Cyclopropylmethoxy)-3-methoxy-phenyl]ethyl]-2-methyl-5-[(1R,4R)-5-methyl-2,5-diazabicyclo[2.2.1]heptan-2-yl]benzamide]",,61.1,< 2,,
"COc1cc([C@@H](C)NC(=O)c2cc(N3C[C@H]4CC[C@@H](C3)N4)ccc2C)ccc1OCC1CC1 [Example 298, N-[(1R)-1-[4-(Cyclopropylmethoxy)-3-methoxy-phenyl]ethyl]-5-[(1R,5S)-3,8-diazabicyclo[3.2.1]octan-3-yl]-2-methyl-benzamide]",,,,43.9,< 2
"COc1ccc([C@@H](C)NC(=O)c2cc(C3CCN(C)CC3)ccc2C)cc1Br [Example 299, N-[(1R)-1-(3-Bromo-4-methoxy-phenyl)ethyl]-2-methyl-5-(1-methyl-4-piperidyl)benzamide]",,76.2,< 2,,
"COc1cc(-c2cn(C)nc2C)cc([C@@H](C)NC(=O)c2cc(C3CCN(C)CC3)ccc2C)c1 [Example 301, N-[(1R)-1-[3-(1,3-Dimethylpyrazol-4-yl)-5-methoxy-phenyl]ethyl]-2-methyl-5-(1-methyl-4-piperidyl)benzamide]",,77.5,< 2,,
"COc1cc(-c2cnn(C)c2)cc([C@@H](C)NC(=O)c2cc(C3CCN(C)CC3)ccc2C)c1 [Example 302, N-[(1R)-1-[3-Methoxy-5-(1-methylpyrazol-4-yl)phenyl]ethyl]-2-methyl-5-(1-methyl-4-piperidyl)benzamide]",,67.1,< 2,,
"COc1cc(-c2cnn(C)c2)cc([C@@H](C)NC(=O)c2cc(C3CCNCC3)ccc2C)c1 [Example 303, N-[(1R)-1-[3-Methoxy-5-(1-methylpyrazol-4-yl)phenyl]ethyl]-2-methyl-5-(4-piperidyl)benzamide]",,73.2,< 2,,
"Cc1ccc(N2CCN(C)CC2)cc1C(=O)N[C@H](C)c1cccc(C(=O)NC[C@@H](O)CO)c1 [Example 308, N-[(1R)-1-[3-[[(2R)-2,3-Dihydroxypropyl]carbamoyl]phenyl]ethyl]-2-methyl-5-(4-methylpiperazin-1-yl)benzamide hydrochloride salt]",,126.8,< 10,,
"Cc1ccc(N2CCN(C)CC2)cc1C(=O)N[C@H](C)c1cccc(C(=O)NC[C@H](O)CO)c1 [Example 309, N-[(1R)-1-[3-[[(2S)-2,3-Dihydroxypropyl]carbamoyl]phenyl]ethyl]-2-methyl-5-(4-methylpiperazin-1-yl)benzamide]",,118.2,< 5,,
"Cc1ccc(N2CCN(C)CC2)cc1C(=O)N[C@H](C)c1cccc(C(=O)NCC(N)=O)c1 [Example 310, N-[(1R)-1-[3-[(2-Amino-2-oxo-ethyl)carbamoyl]phenyl]ethyl]-2-methyl-5-(4-methylpiperazin-1-yl)benzamide hydrochloride salt]",,124.4,< 5,,
"Cc1ccc(N2CCN(C)CC2)cc1C(=O)N[C@H](C)c1cccc(C(=O)N(C)C)c1 [Example 311, N-[(1R)-1-[3-(Dimethylcarbamoyl)phenyl]ethyl]-2-methyl-5-(4-methylpiperazin-1-yl)benzamide]",,130.7,< 20,,
"CNC(=O)c1cccc([C@@H](C)NC(=O)c2cc(N3CCN(C)CC3)ccc2C)c1 [Example 312, 2-Methyl-N-[(1R)-1-[3-(methylcarbamoyl)phenyl]ethyl]-5-(4-methylpiperazin-1-yl)benzamide]",,78.3,< 10,,
"Cc1ccc(N2CCN(C)CC2)cc1C(=O)N[C@H](C)c1cccc(C#CCO)c1 [Example 315, N-[(1R)-1-[3-(3-Hydroxyprop-1-ynyl)phenyl]ethyl]-2-methyl-5-(4-methylpiperazin-1-yl)benzamide]",,122.7,< 5,,

# Reference: patent US20240383852A1, “ANTI-VIRAL COMPOUNDS” (INFEX Therapeutics Limited, priority 2021, published 2024)
